Measurements reported in patent US20050176649A1, “Iap binding peptides and assays for identifying compounds that bind iap” (priority 2001, published 2005).
Residues, ends and D or L forms follow the SMILES beside them.

Key:
BIR3 domain of XIAP = molecular target: T1, BIR3 domain of XIAP (Homo sapiens, UniProt P98170); assay: Fluorescence displacement assay: AVPC-badan displaced from BIR3 by test tetrapeptide (typical assay, Tables 1 and 2); type: binding, mammalian; details: for K: binding (equilibrium) constant for displacement of AVP-dye, position-4 library, 5 μM dye and protein, larger = greater affinity; for Intensity (470 nm): emission intensity of AVPC-badan with BIR3 and test tetrapeptide, excitation 387 nm, lower = more dye displaced; for Fraction free: fraction of AVPC-badan free (displaced from BIR3), from intensity at 470 nm
T1 construct: Recombinant XIAP-BIR3 (residues 238-358); GST (N, cleaved yes); made in house; host or cells: E. coli
T1 sequence (P98170 238-358): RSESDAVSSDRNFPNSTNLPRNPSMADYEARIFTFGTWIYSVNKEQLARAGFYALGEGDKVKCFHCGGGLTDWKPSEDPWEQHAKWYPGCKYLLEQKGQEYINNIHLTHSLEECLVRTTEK
Excerpt: The ability to quickly assay small molecules for their effectiveness in disrupting protein-protein interactions is critical to the development of viable drug candidates. One aspect of the present invention comprises an assay to test the binding affinity of a library of tetrapeptide molecules for the BIR3 domain of an inhibitor of apoptosis protein (LAP), particularly the mammalian XIAP. The assay is based on a detectable label, preferably a fluorogenic dye molecule. In preferred embodiments, the fluorophore is attached to a tripeptide, AVP, whose sequence matches the N-terminal three residues of Smac. The general structure of this molecule, therefore, is AVP[X], wherein X is the fluorophore. The molecule is referred to herein as an “AVP-dye”. The AVP-dye packs into the groove of the BIR3, causing a large shift in emission maximum and intensity when the environment of the dye changes from water to the hydrophobic pocket of the protein. If a molecule (e.g. the native Smac protein or a tetrapeptide mimic) displaces the dye, then emission will shift back to the spectrum observed in water. Since the emission intensity is related to the binding of the tetrapeptide, the intensity can be used to estimate the equilibrium constant, K, for displacement of the AVP-dye by the tetrapeptide. The larger the equilibrium constant, the greater affinity the tetrapeptide has for the BIR3.
The aforementioned AVP-dye is used in an assay of test compounds that may, like the Smac tetrapeptide AVPI, bind to the BIR3 domain of XIAP, thereby relieving XIAP-mediated suppression of apoptosis. This is a high-throughput, cell-free assay, that is assembled as follows. A protein comprising the BIR3 domain of an IAP is placed in an assay medium comprising a suitable buffer, as described above. Preferably, this is a recombinant protein comprising the BIR3 domain, but a full IAP protein also may be used. An aliquot of the AVP-dye is added to the reaction mixture, in the presence of the test compound. Controls comprise the BIR3 and the dye in the absence of the test compound and, optionally, BIR3 and the dye in the presence of the naturally occurring tetrapeptide, AVPI. […] Alternatively, a emission spectrum is measured at the selected excitation wavelength. In one type of measurement, the test compound is added and an emission spectrum is measured by scanning from, e.g., 460-480 nm. In another type of measurement, the emission intensity at a particular wavelength, e.g., 470 nm, is measured. […] Thus, the binding affinity of the test compound may be calculated as a function of its ability to displace the dye from the BIR3 domain, according to the following calculation: [formula]
Stock solution of badan, BIR3, and buffer were mixed: 2.5 ml of badan, 1.75 ml BIR3, and 15.25 ml of buffer were mixed in a glass vial which had been chilled to 4° C. Added 390 μL of the stock solution to 50 wells in the pre-chilled 96 well plate (wells A1-E2).
Stock solution of badan and buffer were mixed: 150 μL badan and 1020 μL of buffer were mixed in a small glass vial (also chilled) and added to 3 wells on the plate in 390 μL aliquots (F1-F3).
The 96 well plate was stored over ice in an insulated bucket while the emission spectra of the samples were taken. Fifty μL of the appropriate test solution (or water, for the control experiments) was added with a micropipet, the solution mixed with a Pasteur pipet before adding the sample to the fluorescence cuvette. While one sample was being scanned, the cuvette from the previous scan was washed with EtOH and then next sample was prepared.

[1] = molecular target: T2, BIR3 domain of XIAP (recombinant XIAP-BIR3, residues 238-358) (Homo sapiens, UniProt P98170); assay: Fluorescence-based competition assay of tetrapeptide libraries (Example 1); type: binding, mammalian
T2 construct: Recombinant XIAP-BIR3 (residues 238-358); GST (N, cleaved yes); made in house; host or cells: E. coli
T2 sequence (P98170 238-358): as above
Excerpt: Expression and Purification of BIR3. […] The soluble fraction of the GST-BIR3 in the E. coli lysate was purified over a glutathione sepharose column, and further purified by anion exchange chromatography (Mono-Q, Amersham Biosciences). The fusion protein was cleaved by thrombin, and the GST portion was removed by the glutathione sepharose column. The BIR3 protein was further purified over a gel filtration column (Superdex 30, Amersham Biosciences).
Fluorescence Experiments. Luminescence spectra were recorded using a Photon Technologies, Inc. fluorometer with a Xe arc lamp and a PMT detector. […] The buffer used in all of the fluorescence experiments was 50 mM potassium phosphate, 100 mM NaCl, 2 mM 1,4-dithio-DL-threitol (DTT), pH 7.
Assay of Tetrapeptide Libraries. The samples were prepared in a 96 well plate lined with glass tubes, to prevent adsorption of the dye to plastic. The plate was stored on ice in the dark between measurements. […] 390 μL of this stock solution were added to 50 wells of the 96 well plate. 50 μL of the test tetrapeptide solutions were added and mixed immediately prior to taking the emission spectra. The final solutions were 5 μM in both badan and BIR3, and approximately 20-30 μM in the tetrapeptide solutions. […] 50 μL of water was added to these wells, again as controls, to determine the intensity of the unbound dye.
The binding of various tetrapeptide mimics to the BIR3 domain of XIAP was determined using a fluorescence-based competition assay. The assay is based on an environment-sensitive fluorogenic dye molecule, badan. Badan is a dye whose sensitivity to environmental changes has previously been used to probe protein binding interactions. […] As the dye is displaced from the binding pocket by the test molecule, the emission shifts back towards the aquated spectrum.

[2] = molecular target: Recombinant XIAP-BIR3 (residues 238-358) (UniProt P98170); assay: fluorescence competition, displacement of AVPC-badan from BIR3
Chain of Recombinant XIAP-BIR3 (residues 238-358) (UniProt P98170) (P98170 238-358 limits assumed): as the sequence (P98170 238-358) above

[3] = molecular target: T3, Recombinant XIAP-BIR3 (residues 238-358) (UniProt P98170 238-358); assay: as above
T3 construct: also called BIR3 domain of XIAP; BIR3 protein
T3 sequence (P98170 238-358 limits assumed): as the sequence (P98170 238-358) above
Description: The samples were prepared in a 96 well plate lined with glass tubes, to prevent adsorption of the dye to plastic. The plate was stored on ice in the dark between measurements. A small volume cuvette, with a path length of 2 mm, was used to collect the emission spectra. […] 390 μL of this stock solution were added to 50 wells of the 96 well plate. 50 μL of the test tetrapeptide solutions were added and mixed immediately prior to taking the emission spectra. […] 50 μL of water was added to these wells, again as controls, to determine the intensity of the unbound dye.
The binding of various tetrapeptide mimics to the BIR3 domain of XIAP was determined using a fluorescence-based competition assay. […] As the dye is displaced from the binding pocket by the test molecule, the emission shifts back towards the aquated spectrum.

Row | K (BIR3 domain of XIAP) | Kd [1] [nM] | Kd [3] [nM] | Molecule | further results
1 | 0.01304 | 4400 | – | CC(C)[C@H](NC(=O)[C@H](C)N)C(=O)N1CCC[C@H]1C(=O)N[C@@H](CO)C(N)=O [AVPS] (H-AVPS-NH2; N-terminus and C-terminus assumed) | –
2 | 0.05288 | 2300 | – | CSCC[C@H](NC(=O)[C@@H]1CCCN1C(=O)[C@@H](NC(=O)[C@H](C)N)C(C)C)C(N)=O [AVPM] (H-AVPM-NH2; N-terminus and C-terminus assumed) | –
3 | 0.03709 | 93000 | – | CC(C)[C@H](NC(=O)[C@H](C)N)C(=O)N1CCC[C@H]1C(=O)N[C@@H](CCC(=O)O)C(N)=O [AVPE] (H-AVPE-NH2; N-terminus and C-terminus assumed) | –
4 | 0.1799 | 7300 | – | CC(C)[C@H](NC(=O)[C@H](C)N)C(=O)N1CCC[C@H]1C(=O)N[C@@H](CC(=O)O)C(N)=O [AVPD] (H-AVPD-NH2; N-terminus and C-terminus assumed) | –
5 | 0.1034 | 1400 | – | CC(C)[C@H](NC(=O)[C@H](C)N)C(=O)N1CCC[C@H]1C(=O)N[C@@H](CS)C(N)=O [AVPC, Ala-Val-Pro-Cys-NH2] | –
6 | – | 180 | – | CC[C@H](C)[C@H](NC(=O)[C@@H]1CCCN1C(=O)[C@H](CCCNC(=N)N)NC(=O)[C@H](C)N)C(N)=O [ARPI] | Intensity (470 nm) (BIR3 domain of XIAP): 29455; Fraction free (BIR3 domain of XIAP): 0.9125
7 | 0.00702 | 28000 | – | CC(C)[C@H](NC(=O)[C@H](C)N)C(=O)N1CCC[C@H]1C(=O)N[C@@H](CCCCN)C(N)=O [AVPK] (H-AVPK-NH2; N-terminus and C-terminus assumed) | –
8 | 0.1011 | 1500 | – | CC(C)[C@H](NC(=O)[C@@H]1CCCN1C(=O)[C@@H](NC(=O)[C@H](C)N)C(C)C)C(N)=O [AVPV] (H-AVPV-NH2; N-terminus and C-terminus assumed) | –
9 | – | – | – | AbuVPI (peptide) | Fraction free [2]: 0.887; Intensity (470 nm) [2]: 34800
10 | 1.1692 | 300 | – | CC(C)[C@H](NC(=O)[C@H](C)N)C(=O)N1CCC[C@H]1C(=O)N[C@@H](Cc1ccc(O)cc1)C(N)=O [AVPY] (H-AVPY-NH2; N-terminus and C-terminus assumed) | Intensity (470 nm) (BIR3 domain of XIAP): 39093; Fraction free (BIR3 domain of XIAP): 0.8657
11 | 0.05518 | 14000 | – | CC(C)[C@H](NC(=O)[C@H](C)N)C(=O)N1CCC[C@H]1C(=O)N[C@@H](C)C(N)=O [AVPA] (H-AVPA-NH2; N-terminus and C-terminus assumed) | –
12 | 0.07521 | 7300 | – | CC(C)[C@H](NC(=O)[C@H](C)N)C(=O)N1CCC[C@H]1C(=O)N[C@@H](Cc1c[nH]cn1)C(N)=O [AVPH] (H-AVPH-NH2; N-terminus and C-terminus assumed) | –
13 | 0.08948 | 4700 | – | CC(C)[C@H](NC(=O)[C@H](C)N)C(=O)N1CCC[C@H]1C(=O)NCC(N)=O [AVPG] (H-AVPG-NH2; N-terminus and C-terminus assumed) | –
14 | – | – | 390 | AIPI (Synthetic tetrapeptide) | –
15 | – | – | 290 | ALPI (Synthetic tetrapeptide) | –
16 | – | – | 730 | AMPI (Synthetic tetrapeptide) | –
17 | – | – | 590 | AYPI (Synthetic tetrapeptide) | –
18 | – | – | 940 | AQPI (Synthetic tetrapeptide) | –
19 | – | – | 570 | AKPI (Synthetic tetrapeptide) | –
20 | – | – | 790 | AFPI (Synthetic tetrapeptide) | –
21 | – | – | 650 | ACPI (Synthetic tetrapeptide) | –
